Measurements: US20110237640A1, “PYRAZOLE PHENYL DERIVATIVES” (priority 2004, published 2011)

Tests used:
[1] = molecular target: T1, GST-PPARα-LBD fusion protein (Homo sapiens, UniProt Q07869); assay: PPARα radioligand binding assay (SPA)
T1 construct: PPARα (aa 167 to 469); made in house; host or cells: E. coli BL21(pLysS)
T1 sequence (Q07869 167-468 limits assumed): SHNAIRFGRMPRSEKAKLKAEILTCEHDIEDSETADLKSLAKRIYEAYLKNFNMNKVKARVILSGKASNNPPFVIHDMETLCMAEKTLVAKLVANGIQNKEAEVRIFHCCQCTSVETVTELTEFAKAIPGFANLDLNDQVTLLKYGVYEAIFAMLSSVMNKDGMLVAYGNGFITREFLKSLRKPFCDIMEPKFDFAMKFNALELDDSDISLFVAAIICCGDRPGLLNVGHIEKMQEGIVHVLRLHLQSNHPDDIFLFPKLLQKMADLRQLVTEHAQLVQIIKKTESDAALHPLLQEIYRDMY
Source text: (§1) Full-length cDNA clones for humans PPARδ and PPARα and mouse PPARγ were obtained by RT-PCR from human adipose and mouse liver cRNA, respectively, cloned into plasmid vectors and verified by DNA sequencing. Bacterial and mammalian expression vectors were constructed to produce glutathione-s-transferase (GST) and Gal4 DNA binding domain proteins fused to the ligand binding domains (LBD) of PPARδ (aa 139 to 442), PPARγ (aa 174 to 476) and PPARα (aa 167 to 469). To accomplish this, the portions of the cloned sequences encoding the LBDs were amplified from the full-length clones by PCR and then subcloned into the plasmid vectors. Final clones were verified by DNA sequence analysis.
(§2) Induction, expression, and purification of GST-LBD fusion proteins were performed in E. coli strain BL21(pLysS) cells by standard methods (Ref: Current Protocols in Molecular Biology, Wiley Press, edited by Ausubel et al.).
(§3) PPARαreceptor binding was assayed in TKE50 (50 mM Tris-HCl, pH 8, 50 mM KCl, 2 mM EDTA, 0.1 mg/ml fatty acid-free BSA and 10 mM DTT). […] All binding assays were performed in 96 well plates and the amount of bound ligand measured on a Packard TopCount using OptiPlates (Packard). Nonspecific binding was determined in the presence of 10^−4 M unlabelled compound. […]

[2] = molecular target: T2, GST-PPARγ-LBD fusion protein (Mus musculus, UniProt P37238); assay: PPARγ radioligand binding assay (SPA)
T2 construct: PPARγ (aa 174 to 476); made in house; host or cells: E. coli BL21(pLysS)
T2 sequence (P37238 204-505): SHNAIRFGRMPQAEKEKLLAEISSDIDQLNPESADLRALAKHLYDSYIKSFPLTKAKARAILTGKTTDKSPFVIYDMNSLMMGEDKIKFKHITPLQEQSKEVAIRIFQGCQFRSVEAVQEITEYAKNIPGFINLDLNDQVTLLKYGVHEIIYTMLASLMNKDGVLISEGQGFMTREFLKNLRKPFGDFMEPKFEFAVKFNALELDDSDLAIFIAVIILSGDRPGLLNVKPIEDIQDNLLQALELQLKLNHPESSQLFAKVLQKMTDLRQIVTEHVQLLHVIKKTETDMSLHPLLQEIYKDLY
Source text: as §1, §2
as §3, with “PPARγ receptor” for “PPARαreceptor”

[3] = molecular target: T3, PPARδ receptor (GST-PPAR-LBD fusion protein) (Homo sapiens, UniProt Q03181); assay: PPARδ radioligand binding assay (SPA)
T3 construct: PPARδ (aa 139 to 442); made in house; host or cells: E. coli BL21(pLysS)
T3 sequence (Q03181 139-441 limits assumed): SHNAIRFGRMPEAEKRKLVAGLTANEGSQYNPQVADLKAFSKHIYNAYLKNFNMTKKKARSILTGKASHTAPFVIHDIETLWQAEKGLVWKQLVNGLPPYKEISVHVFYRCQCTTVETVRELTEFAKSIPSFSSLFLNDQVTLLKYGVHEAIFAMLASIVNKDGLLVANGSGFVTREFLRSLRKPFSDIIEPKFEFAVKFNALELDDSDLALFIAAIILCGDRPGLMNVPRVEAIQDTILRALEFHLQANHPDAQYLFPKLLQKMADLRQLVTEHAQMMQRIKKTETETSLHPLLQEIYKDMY
Source text: as §1, §2
PPARδ receptor binding was assayed in HNM10 (50 mM Hepes, pH 7.4, 10 mM NaCl, 5 mM MgCl2, 0.15 mg/ml fatty acid-free BSA and 15 mM DTT). […] Radioligand was added and the reaction incubated at RT for 1 h and scintillation proximity counting performed in the presence of test compounds was determined. All binding assays were performed in 96 well plates and the amount of bound ligand was measured on a Packard TopCount using OptiPlates (Packard). […]

[4] = molecular target: T4, pFA-PPARα-LBD in BHK21 cells (Homo sapiens, UniProt Q07869); assay: Luciferase transcriptional reporter gene assay (transactivation), PPARα; type: cell-based; details: for EC50: 24 hours with compound; for PPARα maximal activation (% of reference compound): reference PPARα compound set to 100%
T4 construct: PPARα (aa 167 to 469); expressed in transfected cells; host or cells: BHK21 (ATCC CCL10)
T4 sequence (Q07869 167-468 limits assumed): T1 sequence (Q07869 167-468 limits assumed)
Source text: as §1
(§4) Baby hamster kidney cells (BHK21 ATCC CCL10) were grown in DMEM medium containing 10% FBS at 37° C. in a […]:5% CO2 atmosphere. Cells were seeded in 6 well plates at a density of 10^5 cells/well and then batch-transfected with either the pFA-PPARδ-LBD, pFA-PPARγ-LBD or pFA-PPARα-LBD expression plasmids plus a reporter plasmid (to monitor transfection efficiency). […] Six hours following transfection, the cells were harvested by trypsinization and seeded in 96 well plates at a density of 10^4 cells/well. After 24 hours the medium was removed and replaced with 100 ul of phenol red-free medium containing the corresponding test compounds or control ligands (at a final DMSO concentration of 0.1%). Following incubation of the cells for 24 hours with compounds, 50 μl of the supernatant was discarded and then 50 μl of Luciferase Constant—Light Reagent (Roche Molecular Biochemicals) was added to lyse the cells and initiate the luciferase reaction. Luminescence for luciferase was measured in a Packard TopCount. Transcriptional activation in the presence of a test substance was expressed as fold-activation over cells incubated in the absence of the substance. The signals were normalized against plate-specific controls (DMSO alone) and the fold-stimulation of luciferase activity observed with specific and selective PPARα((2(S)-2-(2-benzoyl-phenylamino)-3-{4-[2-(5-methyl-2-phenyl-oxazol-4-yl)-ethoxy]-phenyl}-propionic acid), PPARγ (Rosiglitazone) and PPARδ ({2-methyl-4-[4-methyl-2-(4-trifluoromethyl-phenyl)-thiazol-5-ylmethylsulfanyl]-phenoxy}-acetic acid) reference compounds was set to 100%. EC50 values were calculated using the XLfit program (ID Business Solutions Ltd. UK).

[5] = molecular target: T5, pFA-PPARδ-LBD in BHK21 cells (Homo sapiens, UniProt Q03181); assay: Luciferase transcriptional reporter gene assay (transactivation), PPARδ; type: cell-based; details: for EC50: 24 hours with compound; for PPARδ efficacy relative to reference compound: reference PPARδ compound set to 100%
T5 construct: PPARδ (aa 139 to 442); expressed in transfected cells; host or cells: BHK21 (ATCC CCL10)
T5 sequence (Q03181 139-441 limits assumed): T3 sequence (Q03181 139-441 limits assumed)
Source text: as §1, §4

SMILES | IC50 [1] | IC50 [2] | IC50 [3] | EC50 [4] | PPARα maximal activation (% of reference compound) [4] | EC50 [5] | PPARδ efficacy relative to reference compound [5]
Cc1cc(OCc2cc(-c3ccc(OC(F)(F)F)cc3)nn2CC(F)(F)F)ccc1OC(C)(C)C(=O)O [Example 6, 2-Methyl-2-{2-methyl-4-[2-(2,2,2-trifluoro-ethyl)-5-(4-trifluoromethoxy-phenyl)-2H-pyrazol-3-ylmethoxy]-phenoxy}-propionic acid] | 0.212 µM | ≥ 10 µM | 0.222 µM | 0.16 µM | 120% | 0.096 µM | 140%
Cc1cc(OCc2cc(-c3ccc(OC(F)(F)F)cc3)nn2C)ccc1OC(C)(C)C(=O)O [Example 1, 2-Methyl-2-{2-methyl-4-[2-methyl-5-(4-trifluoromethoxy-phenyl)-2H-pyrazol-3-ylmethoxy]-phenoxy}-propionic acid] | 0.166 µM | ≥ 10 µM | 0.144 µM | 0.38 µM | 100% | 0.2 µM | 59%
